Measurements published in patent US11964973B2 (priority 2019, dated 2024).
Where two headings read alike, the source gives them in different places. Values belong to the compound of their own block, whether it stands above or below them.

Key:
human DGKζ = human DGKζ (Homo sapiens (Human), UniProt Q13574); test: biochemical; type: biochemical; conditions: liposome (LIPGLO) assay
DGKα = DGKα (Homo sapiens (Human), UniProt P23743); test: biochemical; type: biochemical
[1] = system: Human venous whole blood (IFN-γ); test: Human whole blood IFN-γ assay; type: cell-based
Protocol: Assay 10: Human Whole Blood IFN-γ Assay
Human venous whole blood (22.5 μL per well), obtained from healthy donors, was pre-treated with compounds for one hour at 37° C. in a humidified 95% air/5% CO2 incubator. The blood was stimulated with 2.5 μL anti-human CD3 and anti-CD28 mAb at a final concentration of 1 μg/mL each for 24 hours at 37° C. IFN-γ in the supernatants was measured using AlphLISA kit (Cat #AL217).

[2] = system: human venous whole blood, CD8 positive population (pERK); test: DGK human whole blood pERK assay; type: cell-based; conditions: for EC50: human whole blood pERK, read-out: DGK HWB; for IC50: read-out: DGK HWB pERK IC50
How it was run: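 Heparinized whole blood from healthy donors preincubated with compound 1 hour at 37° C. Stimulation used anti-CD3 at 1 μg/mL final plus cross-linking goat anti-mouse IgG for 15 minutes. Flow cytometry scored percentage pERK-positive cells among CD8-positive cells.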

[3] = Table A, liposome (LIPGLO) assay, read-out: DGKα
[4] = human whole blood IFN-γ, read-out: INFg Whole Blood
[5] = liposome (LIPGLO) assay, read-out: DGKα LIPGLO IC50
[6] = Homo sapiens, 24 h, human whole blood, anti-CD3 plus anti-CD28, 24 hours, read-out: INFg Whole Blood Normalized Agonist EC50
[7] = human whole blood, CD8 positive population
[8] = human whole blood, anti-CD3 plus anti-CD28, 24 hours, read-out: INFg Whole Blood Normalized Agonist EC50

Chain of human DGKζ (Q13574 whole entry, looked up): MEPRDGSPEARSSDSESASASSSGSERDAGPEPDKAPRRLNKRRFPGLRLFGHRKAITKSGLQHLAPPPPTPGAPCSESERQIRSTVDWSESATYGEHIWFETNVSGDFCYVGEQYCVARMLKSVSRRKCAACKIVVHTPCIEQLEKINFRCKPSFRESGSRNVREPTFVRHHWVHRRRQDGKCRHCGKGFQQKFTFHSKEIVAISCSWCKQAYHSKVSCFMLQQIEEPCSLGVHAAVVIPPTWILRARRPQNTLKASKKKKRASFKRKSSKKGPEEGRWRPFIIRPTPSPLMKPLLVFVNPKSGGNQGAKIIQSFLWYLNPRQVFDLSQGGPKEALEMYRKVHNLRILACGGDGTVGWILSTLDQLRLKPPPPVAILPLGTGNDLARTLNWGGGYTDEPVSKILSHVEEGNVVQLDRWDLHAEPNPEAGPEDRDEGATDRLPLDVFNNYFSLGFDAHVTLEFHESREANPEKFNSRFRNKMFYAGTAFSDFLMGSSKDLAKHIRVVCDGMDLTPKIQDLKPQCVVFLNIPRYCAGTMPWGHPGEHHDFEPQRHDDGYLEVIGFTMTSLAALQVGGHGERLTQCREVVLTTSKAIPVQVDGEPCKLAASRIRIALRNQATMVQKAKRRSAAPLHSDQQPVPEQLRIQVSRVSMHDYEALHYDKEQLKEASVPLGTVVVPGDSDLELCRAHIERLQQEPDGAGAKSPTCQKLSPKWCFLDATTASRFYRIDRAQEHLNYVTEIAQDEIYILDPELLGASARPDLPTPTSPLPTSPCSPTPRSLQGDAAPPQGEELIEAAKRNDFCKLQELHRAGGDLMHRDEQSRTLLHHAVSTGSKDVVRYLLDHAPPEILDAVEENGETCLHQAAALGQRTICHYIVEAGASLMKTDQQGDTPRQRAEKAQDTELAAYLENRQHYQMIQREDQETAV
Chain of DGKα (P23743 whole entry, looked up): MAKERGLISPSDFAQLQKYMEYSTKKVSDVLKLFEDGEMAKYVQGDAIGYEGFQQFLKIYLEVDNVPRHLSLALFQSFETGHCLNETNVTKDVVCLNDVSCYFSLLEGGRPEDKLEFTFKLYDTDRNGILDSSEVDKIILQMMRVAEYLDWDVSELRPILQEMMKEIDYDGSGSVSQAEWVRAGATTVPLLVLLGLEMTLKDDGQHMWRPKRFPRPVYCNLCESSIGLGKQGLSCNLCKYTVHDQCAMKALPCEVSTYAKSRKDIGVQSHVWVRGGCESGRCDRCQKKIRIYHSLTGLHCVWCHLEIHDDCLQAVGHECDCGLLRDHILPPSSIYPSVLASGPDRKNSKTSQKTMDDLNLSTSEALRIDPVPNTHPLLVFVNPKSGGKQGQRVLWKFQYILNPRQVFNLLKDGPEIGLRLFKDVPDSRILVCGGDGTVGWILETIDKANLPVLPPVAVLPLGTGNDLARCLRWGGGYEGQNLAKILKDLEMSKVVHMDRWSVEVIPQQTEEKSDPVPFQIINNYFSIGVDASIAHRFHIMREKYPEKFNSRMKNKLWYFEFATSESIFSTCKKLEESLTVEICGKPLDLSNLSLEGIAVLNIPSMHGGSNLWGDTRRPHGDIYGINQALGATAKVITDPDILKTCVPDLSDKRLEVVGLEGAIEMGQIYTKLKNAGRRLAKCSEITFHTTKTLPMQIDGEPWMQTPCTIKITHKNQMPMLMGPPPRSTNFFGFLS

IC50 (human DGKζ; Table A, read-out: DGKζ): 1.8 µM
IC50 (DGKα; [3]): 0.35 µM
Compound: CCc1cnc(O[C@H]2CCN(c3cc(=O)n(C)c4ccc(C#N)nc34)C[C@H]2C)nc1 [Example 221, 8-((3R,4S)-4-((5-ethylpyrimidin-2-yl)oxy)-3-methylpiperidin-1-yl)-5-methyl-6-oxo-5,6-dihydro-1,5-naphthyridine-2-carbonitrile]

Compound: CC[C@@H]1CN(c2cc(=O)n(C)c3ccc(C#N)nc23)CC[C@H]1Oc1ccc(OC(C)C)cn1 (single isomer, unassigned) [Example 193]
EC50 [1, 4]: 0.37 µM
IC50 (human DGKζ; Table A, read-out: DGKζ): 2.2 µM
EC50 [2]: 0.4 µM

Compound: CCC(C)(C)c1ccc(O[C@@H]2CCN(c3c(C#N)c(=O)n(C)c4ccc(C#N)nc34)C[C@H]2C)cc1 (racemic) [Example 229, (+/−) 5-methyl-8-(trans-3-methyl-4-(4-(tert-pentyl)phenoxy)piperidin-1-yl)-6-oxo-5,6-dihydro-1,5-naphthyridine-2,7-dicarbonitrile]
IC50 (human DGKζ; Table A, read-out: DGKζ): ≥ 250 µM
IC50 (DGKα; [3]): 0.28 µM

Compound: C[C@@H]1CN(c2cc(=O)n(C)c3ccc(C#N)nc23)CC[C@@H]1Oc1cccc(C2CC2)c1 [Example 180, 8-((3R,4S)-4-(3-cyclopropylphenoxy)-3-methylpiperidin-1-yl)-5-methyl-6-oxo-5,6-dihydro-1,5-naphthyridine-2-carbonitrile]
IC50 (human DGKζ; read-out: DGKζ LIPGLO IC50): 1 µM
IC50 (DGKα; [5]): 0.045 µM

Compound: C[C@@H]1CN(c2cc(=O)n(C)c3ccc(C#N)nc23)CC[C@H]1Oc1ccc(F)c(F)c1 (single isomer, unassigned) [Example 104]
EC50 [1, 6]: 1.8 µM
IC50 [2, 7]: 1.1 µM

IC50 (human DGKζ; read-out: DGKζ LIPGLO IC50): 1.1 µM
IC50 (DGKα; [5]): 1.7 µM
Compound: CC[C@@H]1CN(c2cc(=O)n(C)c3ccc(C#N)nc23)CC[C@H]1Oc1cccc(OC(F)(F)F)c1 (single isomer, unassigned) [Example 162]

Compound: CC(C)c1cccc(O[C@H]2CCN(c3cc(=O)n(C)c4ccc(C#N)nc34)C[C@H]2C)n1 (single isomer, unassigned) [Example 216]
EC50 [1, 4]: 1.4 µM
EC50 ([2]; Homo sapiens, CD8 positive): 14 µM

Compound: CC[C@@H]1CN(c2cc(=O)n(C)c3ccc(C#N)nc23)CC[C@H]1Oc1ccc(C(C)C)cc1 (single isomer, unassigned) [Example 144]
EC50 [1, 8]: 0.8 µM
IC50 [2, 7]: 0.88 µM

IC50 (human DGKζ; read-out: DGKζ LIPGLO IC50): 4.3 µM
IC50 (DGKα; [5]): 0.011 µM
Compound: C[C@@H]1CN(c2cc(=O)n(C)c3ccc(C#N)nc23)CC[C@H]1Oc1cccc2c1OCCCO2 [Example 132, 8-((3R,4R)-4-((3,4-dihydro-2H-benzo[b][1,4]dioxepin-6-yl)oxy)-3-methylpiperidin-1-yl)-5-methyl-6-oxo-5,6-dihydro-1,5-naphthyridine-2-carbonitrile]

Compound: C[C@@H]1CN(c2cc(=O)n(C)c3ccc(C#N)nc23)CC[C@@H]1Oc1ccc(C(F)F)cn1 (single isomer, unassigned) [Example 210]
EC50 [1, 4]: 1.2 µM
EC50 [2]: 13 µM

Compound: C[C@@H]1CN(c2cc(=O)n(C)c3ccc(C#N)nc23)CC[C@@H]1Oc1ccc(OC(C)(C)C)cc1 (single isomer, unassigned) [Example 173]
EC50 [1, 8]: 1.1 µM
IC50 (DGKα; [5]): 0.74 µM

Compound: CC(C)c1ccc(O[C@H]2CCN(c3cc(=O)n(C)c4ccc(C#N)nc34)C[C@H]2C)nc1 (single isomer, unassigned) [Example 206]
EC50 [1, 4]: 0.41 µM
EC50 [2]: 3.6 µM

Compound: COc1cc(F)ccc1OC1CCN(c2c(C#N)c(=O)n(C)c3ccc(Cl)nc23)CC1 [Example 36, 6-chloro-4-(4-(4-fluoro-2-methoxyphenoxy)piperidin-1-yl)-1-methyl-2-oxo-1,2-dihydro-1,5-naphthyridine-3-carbonitrile]
IC50 (human DGKζ; read-out: DGKζ LIPGLO IC50): 32 µM
IC50 (DGKα; [5]): 1.6 µM

Compound: CC(C)Oc1ccc(O[C@@H]2CCN(c3cc(=O)n(C)c4ccc(C#N)nc34)C[C@H]2C)nc1 (single isomer, unassigned) [Example 201]
EC50 [1, 4]: 0.92 µM
EC50 [2]: 3.9 µM

Compound: C[C@@H]1CN(c2cc(=O)n(C)c3ccc(C#N)nc23)CC[C@H]1Oc1ccc(OC(C)(C)C)cc1 [Example 87, 8-((3R,4R)-4-(4-(tert-butoxy)phenoxy)-3-methylpiperidin-1-yl)-5-methyl-6-oxo-5,6-dihydro-1,5-naphthyridine-2-carbonitrile]
EC50 [1, 8]: 2 µM
IC50 (DGKα; [5]): 0.05 µM

Compound: C[C@@H]1CN(c2cc(=O)n(C)c3ccc(C#N)nc23)CC[C@H]1Oc1ccc(OC(C)(C)C)cc1 [Example 86, 8-((3R,4R)-4-(4-(tert-butoxy)phenoxy)-3-methylpiperidin-1-yl)-5-methyl-6-oxo-5,6-dihydro-1,5-naphthyridine-2-carbonitrile]
EC50 [1, 8]: 0.69 µM
IC50 (DGKα; read-out: DGKα LIPGLO IC50): 0.72 µM

Compound: C[C@@H]1CN(c2cc(=O)n(C)c3ccc(C#N)nc23)CC[C@H]1Oc1ccc(C(F)(F)F)cc1 (racemic) [Example 97, 5-methyl-8-((3R,4R)-3-methyl-4-(4-(trifluoromethyl)phenoxy)piperidin-1-yl)-6-oxo-5,6-dihydro-1,5-naphthyridine-2-carbonitrile]
EC50 [1, 6]: 1.9 µM
IC50 [2, 7]: 3 µM

Compound: CC[C@@H]1CN(c2cc(=O)n(C)c3ccc(C#N)nc23)CC[C@H]1Oc1cccc(C(F)(F)F)c1 [Example 140, 8-((3R,4R)-3-ethyl-4-(3-(trifluoromethyl)phenoxy)piperidin-1-yl)-5-methyl-6-oxo-5,6-dihydro-1,5-naphthyridine-2-carbonitrile]
EC50 [1, 6]: 1.2 µM
IC50 (DGKα; [5]): 0.13 µM

Compound: CC(C)c1ccc(O[C@H]2CCN(c3cc(=O)n(C)c4ccc(C#N)nc34)C[C@H]2C)nc1 (single isomer, unassigned) [Example 207]
EC50 [1, 4]: 1.3 µM
EC50 [2]: 12 µM

Compound: CC[C@@H]1CN(c2cc(=O)n(C)c3ccc(C#N)nc23)CC[C@@H]1Oc1cccc(C(C)C)c1 [Example 164, 8-((3R,4S)-3-ethyl-4-(3-isopropylphenoxy)piperidin-1-yl)-5-methyl-6-oxo-5,6-dihydro-1,5-naphthyridine-2-carbonitrile]
EC50 ([1]; Homo sapiens, 24 h, read-out: INFg Whole Blood Normalized Agonist EC50, human whole blood, anti-CD3 plus anti-CD28, 24 hours): 0.79 µM
IC50 ([2]; Homo sapiens, CD8 positive): 5.1 µM

Compound: C[C@@H]1CN(c2cc(=O)n(C)c3ccc(C#N)nc23)CC[C@@H]1Oc1ccc(OC(C)(C)C)cc1 (single isomer, unassigned) [Example 174]
EC50 [1, 8]: 3.6 µM
IC50 (DGKα; read-out: DGKα LIPGLO IC50): 1.6 µM

Compound: CC[C@@H]1CN(c2cc(=O)n(C)c3ccc(C#N)nc23)CC[C@H]1Oc1ccc(C(F)(F)F)cc1 (single isomer, unassigned) [Example 147]
EC50 [1, 8]: 1.2 µM
IC50 [2, 7]: 0.61 µM

Compound: C[C@@H]1CN(c2cc(=O)n(C)c3ccc(C#N)nc23)CC[C@@H]1Oc1ccc(OC(C)(C)C)cc1 [Example 172, 8-((3R,4S)-4-(4-(tert-butoxy)phenoxy)-3-methylpiperidin-1-yl)-5-methyl-6-oxo-5,6-dihydro-1,5-naphthyridine-2-carbonitrile]
EC50 [1, 6]: 1.5 µM
IC50 (DGKα; read-out: DGKα LIPGLO IC50): 0.62 µM

Compound: C[C@@H]1CN(c2cc(=O)n(C)c3ccc(C#N)nc23)CC[C@@H]1Oc1ccc(C(F)(F)F)cc1 (single isomer, unassigned) [Example 187, 5-methyl-8-(cis-3-methyl-4-(4-(trifluoromethyl)phenoxy)piperidin-1-yl)-6-oxo-5,6-dihydro-1,5-naphthyridine-2-carbonitrile (rel)]
EC50 [1, 4]: 1.7 µM
EC50 ([2]; Homo sapiens, CD8 positive): 1.8 µM

Compound: CC[C@@H]1CN(c2cc(=O)n(C)c3ccc(C#N)nc23)CC[C@H]1Oc1ccc(OC(C)C)cn1 (single isomer, unassigned) [Example 194]
EC50 [1, 4]: 1.8 µM
IC50 (human DGKζ; Table A, read-out: DGKζ): 1.8 µM
EC50 [2]: 3 µM

Compound: C[C@@H]1CN(c2cc(=O)n(C)c3ccc(C#N)nc23)CC[C@@H]1Oc1ccc(C(F)F)cn1 (single isomer, unassigned) [Example 209]
EC50 ([1]; Homo sapiens, human whole blood IFN-γ, read-out: INFg Whole Blood): 1.8 µM
EC50 ([2]; Homo sapiens, CD8 positive): 18 µM
